Data from patent publication US20090071883A1 (priority 2007, published 2009).

Key:
[1] = tested on: Cryptosporidium parvum oocysts; details: pH 7; cited from earlier work
[2] = tested on: Erwinia carotovora; type: cell-based

| Structure (SMILES) | approximate CT values for 99% inactivation [1] | mean log cfu Erwinia carotovora [2] [log cfu] |
| --- | --- | --- |
| [O][Cl+][O-] [chlorine dioxide] | ~78 | 0.0 |
| NCl [monochloramine] | ~7200 |  |
